The values that follow come from paper PMC4847174, “C1, a highly potent novel curcumin derivative, binds to tubulin, disrupts microtubule network and induces apoptosis” (Bioscience Reports, 2016).

In assay [1] the target is T1, tubulin.
T1 construct: tubulin purified from goat brain
Nature of the assay: quenching of intrinsic tryptophan fluorescence; gel filtration co-elution; curcumin displacement; polymerization inhibition. It counts as binding, Capra hircus. In general terms: SEC sorts molecules by how far they enter the pores of the column.

Assay [2] has as its target T1, tubulin. Nature of the assay: quenching of intrinsic tryptophan fluorescence. It counts as binding, Capra hircus.

As a reminder, the Kd is the concentration at which binding is half-saturated. In turn, `COc1cc(/C=C/C(=O)C(=CC2CCN(C(=O)OC(C)(C)C)CC2)C(=O)/C=C/c2ccc(O)c(OC)c2)ccc1O` [C1, 4-{5-(4-hydroxy-3-methoxy-phenyl)-2-[3-(4-hydroxy-3-methoxy-phenyl)-acryloyl]-3-oxo-penta-1,4-dienyl}-piperidine-1-carboxylic acid tert-butyl ester] returned a Kd at tubulin [1] of 2.8 ± 1 µM.

On to `COc1cc(/C=C/C(=O)CC(=O)/C=C/c2ccc(O)c(OC)c2)ccc1O` [Curcumin], for which, at tubulin [2], the affinity, expressed as Kd, was 5.2 ± 0.8 µM.
